Results on two compounds are retold here after patent US8637664B2, “Alkyl 4- [4- (5-oxo-2,3,5, 11a-tetrahydo-5H-pyrrolo [2, 1-c] [1,4] benzodiazepine-8-yloxy)-butyrylamino]-1H-pyrrole-2-carboxylate derivatives and related compounds for the treatment of a proliferative disease” (Spirogen SARL, priority 2005, dated 2014).

The test system of assay [1] is NF-Y binding at ICB1 of Topoisomerase IIα promoter. Kind of assay: NF-Y gel shift assay (EMSA) at ICB1. On the technique in general: A gel shift assay detects complexes by their altered migration in electrophoresis.
Assay [2] has as its system 170 bp sequence of the human Topo-IIa promoter. The assay can be described thus: DNase I footprinting on Topo-IIa promoter (ICB1, ICB2 sites). It is filed as binding. A digest of the protocol: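 DNase I footprinting on a 170 bp human Topo-IIa promoter fragment, compound lanes at 0, 1.6, 8, 40, 200, 1000, 5000 and 25000 nM. Values are the concentrations (μM) at which binding at the ICB1 and ICB2 sites is seen.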

The next assay relates to calf thymus DNA (CT-DNA). The assay can be described thus: DNA thermal denaturation (melting) studies. In kind it is binding. Conditions: CT-DNA 100 μM DNAp, compound 20 μM, 37 °C; for Induced ΔTm after incubation 0 hours: pH 7.00, 0 hours; for Induced ΔTm after incubation 4 hours: pH 7.00, 4 hours; for Induced ΔTm after incubation 18 hours: pH 7.00, 18 hours. An outline of the steps: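 CT-DNA at 100 μM (50 μM bp) with test compound at 20 μM in pH 7.00 10 mM sodium phosphate/1 mM EDTA, preincubated at 37.0 °C for 0–18 h (up to 72 h for some compounds). Absorbance at 260 nm, heated 1 °C/min over 45–98 °C; Tm from melting-profile midpoint, ΔTm versus free DNA, MeOH-corrected, mean±SD of ≥3.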

Assay [3] has as its system NF-Y binding at ICB2 of Topoisomerase IIα promoter. The assay can be described thus: NF-Y gel shift assay (EMSA) at ICB2.

As to `COC(=O)c1cc(NC(=O)c2cc(NC(=O)CCCOc3cc4c(cc3OC)C(=O)N3CCC[C@H]3C=N4)cn2C)cn1C` [Compound 23, (11aS) Methyl 4-({4-[4-(7-Methoxy-6-oxo-2,3,5,11a-tetrahydro-5H-pyrrolo[2,1-c][1,4]benzodiazepine-8-yloxy)-butyrylamino]-1-methyl-1H-pyrrole-2-carbonyl}-amino)-1-methyl-1H-pyrrole-2-carboxylate], the “Lowest concentration at which NF-Y binding inhibition was observed” value in assay [1] is 5 µM. Also, the “Concentration at which DNA binding is observed, ICB1” value in assay [2] (ICB1 site) worked out at 1 µM. In addition, the “Concentration at which DNA binding is observed, ICB2” value in assay [2] (ICB2 site) is 1 µM. For the same compound, in the assay on calf thymus DNA (CT-DNA), the “Induced ΔTm after incubation 0 hours” value was determined as 13.9 °C, the “Induced ΔTm after incubation 4 hours” value worked out at 15.0 °C and the “Induced ΔTm after incubation 18 hours” value worked out at 15.6 °C. In addition, the “Lowest concentration at which NF-Y binding inhibition was observed” value in assay [3] stood at 5 µM.
Consider `COC(=O)c1cc(NC(=O)c2cc(NC(=O)c3cc(NC(=O)CCOc4cc5c(cc4OC)C(=O)N4CCC[C@H]4C=N5)cn3C)cn2C)cn1C` [Compound C11, (11aS) Methyl 4-{[4-({4-[4-(7-Methoxy-5-oxo-2,3,5,11a-tetrahydro-5H-pyrrolo[2,1-c][1,4]benzodiazepine-8-yloxy)-propionylamino]-1-methyl-1H-pyrrole-2-carbonyl]-amino)-1-methyl-1H-pyrrole-2-carbonyl]-amino}-1-methyl-1H-pyrrole-2-carboxylate], for which, in the assay with calf thymus DNA (CT-DNA), the “Induced ΔTm after incubation 0 hours” value worked out at 7.9 °C, the “Induced ΔTm after incubation 4 hours” value worked out at 8.4 °C and the “Induced ΔTm after incubation 18 hours” value came to 9.6 °C.
